Data from patent US20030032003A1, “IN VIVO SELECTION” (priority 2000, published 2003).

Key:
wildtype C57BL/6J mice = assay: Acute toxicity of hygromycin B, approximate lethal dose; type: in vivo, mouse; conditions: for body weight, percentage of the body weight before the experiment / survival: wildtype, 10 days
Method: (§1) The animals were kept in SPF conditions, supplied with standard diet and water ad libitum. The room was held at 22° C. with humidity 70% and 12 hours dark-light cycle. Hygromycin-B was purchased from Sigma. The compound was dissolved in sterile water before application and the solution was injected i.p.
(§2) The approximate lethal dose of hygromycin B after single i.p. injections was determined according to Deichmann and LeBlanc (1943). […] Two sets of six month old male mice (22-28 g) were used for all acute toxicity experiments. […] Total volume injected was 0.5 ml. The health status and body weights of animals were monitored daily for 10 consecutive days. The lowest dose in the dose response curve at which one mouse died was considered as the approximate lethal dose. […] The animals were checked twice a day. The maximum theoretical time the animals could be dead before necropsy was performed was 12 hrs.
(§3) The approximate lethal dose (Deichmann and LeBlanc 1943) of hygromycin B in transgenic hyg^R bearing as well as wildtype mice was determined as a measure of the acute toxicity. […] The first dose in the increasing sequence of doses at which the mice died was considered the approximate lethal dose. The health status of animals was monitored for ten consecutive days. Hyg^R transgenic and wildtype mice tolerated a single i.p. injection of hygromycin B without immediate toxic symptoms or distress. The approximate lethal dose of hygromycin B for wildtype mice was […] (Table 1). […] Lethal doses in both hyg^R expressing transgenic and wild type strains caused the same signs of decreased activity which progressed to lethargy and death. The body weight of animals after lethal doses decreased which was less severe at shorter survival duration after hygromycin treatment (Table 1).

[1] = system: hyg^R transgenic mice C57BL/6J-TgN(pPWL512hyg)1Ems; assay: as above; type: in vivo, mouse; conditions: for body weight, percentage of the body weight before the experiment / survival: hyg^R, 10 days
Method: as §1, §2, §3

wildtype mice [2] = assay: Biochemical analysis of serum after hygromycin B; type: in vivo, mouse; conditions: 9 mg/kg single i.p., serum 48 hrs after treatment
Method: (§4) Serum biochemistry parameters analyzed included blood urea nitrogen ([…]), aspartate amino transferase (AST) and alanine amino transferase (ALT). The analyses were performed at Tufts University Veterinary Medical Diagnosis Laboratory with the chemical analyzer Hitachi 747. Blood was collected from the posterior vena cava of hyg^R mice that were treated with saline, 803 mg/kg and wildtype mice administered 9 mg/kg hygromycin B i.p.
(§5) Hyg^R mice were treated with the lethal dose of 803 mg/kg hygromycin B and wildtype mice were treated with the lethal dose of 9 mg/kg hygromycin B. As a control, hyg^R mice were also treated with the nontoxic dose of 9 mg/kg. Serum samples taken 48 hrs after treatment were evaluated for the levels of blood urea nitrogen (BUN), aspartate amino transferase (AST) and alanine amino transferase (ALT). Elevated BUN is associated with dehydration and/or renal insufficiency. Elevated activities of ALT and AST are characteristic for liver damage particularly necrosis, cirrhosis and/or hepatitis. Increased AST levels are also characteristic for muscle trauma, myocardial infarction or myositis.

hyg^R mice [3] = assay: Biochemical analysis of serum after hygromycin B; type: in vivo, mouse; conditions: serum 48 hrs after treatment
Method: as §4, §5

wildtype mice [4] = assay: Histopathological analysis of mouse tissues after Hygromycin B; type: in vivo; conditions: lethal dose 9 mg/kg
Method: (§6) The organs were prepared as paraffin-embedded glass slides stained with hematoxylin and eosin and evaluated as per the NTP (National Toxicology Program of NIEHS) standards. […] For liver, two cross sections, one of each of the two largest liver lobes were examined. For kidneys, an entire cross section (left longitudinal, right transverse) were evaluated. Lungs had two cross sections (one of each of the two largest lobes). The entire sections on the slides (all fields) were evaluated under blinded conditions for lesions and scored (graded) on a subjective basis compared to control animals. The grades were as follows: 1=minimal, 2=mild, 3=moderate, 4=marked, and 0=no pathological changes. The preparation and evaluation of slides used the NTP criteria and terminology (NIEHS, 1993).
(§7) Morphological manifestations of hygromycin B tissue specific toxicity in animals treated with lethal doses was assessed by microscopic analysis. Lethal doses of hygromycin B (9 mg/kg) in wildtype animals caused nephrotoxicity typified by tubule eosinophilia, degeneration, and necrosis characterized by cytoplasmic eosinophilia associated with necrosis, loss of tubule cellular and nuclear detail or degeneration, and pyknotic nuclei and fragmentation of cells. These lesions are typical of acute tubular nephrosis. […] The hyg^R mice treated with lethal doses of hygromycin B (803 mg/kg) had liver damage characterized as hepatocellular fatty change, acute inflammation, and hepatocellular necrosis. Liver lesions in the hyg^R transgenic mice were typified by hepatocellular necrosis with nuclear pyknosis and loss of cellular detail, acute infiltration with small foci of neutrophils, and fatty change with hepatocellular intracytoplasmic large distinct clear vacuoles that displaced nuclei. These liver lesions are characteristic of acute liver damage.

hyg^R mice [5] = assay: as above; type: in vivo; conditions: lethal dose 803 mg/kg
Method: as §6, §7

Compound: CN[C@H]1C[C@@H](N)[C@H](O)[C@@H](O[C@@H]2O[C@H](CO)[C@H](O)[C@@H]3OC4(O[C@H]23)O[C@H]([C@@H](N)CO)[C@H](O)[C@H](O)[C@H]4O)[C@@H]1O (stereo partly drawn) [hygromycin B, Hygromycin-B]
- approximate lethal dose (wildtype C57BL/6J mice; wildtype mice, single i.p.): 6 mg/kg
- body weight, percentage of the body weight before the experiment (wildtype C57BL/6J mice; 2.7 mg/kg single i.p.): 107 ± 3%
- survival (wildtype C57BL/6J mice; 2.7 mg/kg single i.p.): surv (surv. animals survived the 10 days period)
- body weight, percentage of the body weight before the experiment (wildtype C57BL/6J mice; 4 mg/kg single i.p.): 104 ± 1%
- survival (wildtype C57BL/6J mice; 4 mg/kg single i.p.): surv (surv. animals survived the 10 days period)
- body weight, percentage of the body weight before the experiment (wildtype C57BL/6J mice; 6 mg/kg single i.p.): 83 ± 2%
- survival (wildtype C57BL/6J mice; 6 mg/kg single i.p.): 3 days
- body weight, percentage of the body weight before the experiment (wildtype C57BL/6J mice; 9 mg/kg single i.p.): 91 ± 4%
- survival (wildtype C57BL/6J mice; 9 mg/kg single i.p.): 3 days
- body weight, percentage of the body weight before the experiment (wildtype C57BL/6J mice; 13.5 mg/kg single i.p.): 86 ± 6%
- survival (wildtype C57BL/6J mice; 13.5 mg/kg single i.p.): 3 days
- body weight, percentage of the body weight before the experiment (wildtype C57BL/6J mice; 20 mg/kg single i.p.): 83 ± 2%
- survival (wildtype C57BL/6J mice; 20 mg/kg single i.p.): 3 days
- body weight, percentage of the body weight before the experiment (wildtype C57BL/6J mice; 30 mg/kg single i.p.): 82 ± 2%
- survival (wildtype C57BL/6J mice; 30 mg/kg single i.p.): 3 days
- approximate lethal dose ([1]; hyg^R animals, single i.p.): 535 mg/kg
- increase of approximate lethal dose over the wildtype strain ([1]; hyg^R vs wildtype): 89 fold
- body weight, percentage of the body weight before the experiment ([1]; 4 mg/kg single i.p.): 102 ± 2%
- survival ([1]; 4 mg/kg single i.p.): surv (surv. animals survived the 10 days period)
- body weight, percentage of the body weight before the experiment ([1]; 6 mg/kg single i.p.): 107 ± 4%
- survival ([1]; 6 mg/kg single i.p.): surv (surv. animals survived the 10 days period)
- body weight, percentage of the body weight before the experiment ([1]; 9 mg/kg single i.p.): 107 ± 3%
- survival ([1]; 9 mg/kg single i.p.): surv (surv. animals survived the 10 days period)
- body weight, percentage of the body weight before the experiment ([1]; 13.5 mg/kg single i.p.): 101 ± 2%
- survival ([1]; 13.5 mg/kg single i.p.): surv (surv. animals survived the 10 days period)
- body weight, percentage of the body weight before the experiment ([1]; 20 mg/kg single i.p.): 105 ± 1%
- survival ([1]; 20 mg/kg single i.p.): surv (surv. animals survived the 10 days period)
- body weight, percentage of the body weight before the experiment ([1]; 30 mg/kg single i.p.): 105 ± 3%
- survival ([1]; 30 mg/kg single i.p.): surv (surv. animals survived the 10 days period)
- body weight, percentage of the body weight before the experiment ([1]; 46 mg/kg single i.p.): 107 ± 5%
- survival ([1]; 46 mg/kg single i.p.): surv (surv. animals survived the 10 days period)
- body weight, percentage of the body weight before the experiment ([1]; 69 mg/kg single i.p.): 101 ± 3%
- survival ([1]; 69 mg/kg single i.p.): surv (surv. animals survived the 10 days period)
- body weight, percentage of the body weight before the experiment ([1]; 104 mg/kg single i.p.): 103 ± 2%
- survival ([1]; 104 mg/kg single i.p.): surv (surv. animals survived the 10 days period)
- body weight, percentage of the body weight before the experiment ([1]; 155 mg/kg single i.p.): 102 ± 2%
- survival ([1]; 155 mg/kg single i.p.): surv (surv. animals survived the 10 days period)
- body weight, percentage of the body weight before the experiment ([1]; 233 mg/kg single i.p.): 93 ± 5%
- survival ([1]; 233 mg/kg single i.p.): surv (surv. animals survived the 10 days period)
- body weight, percentage of the body weight before the experiment ([1]; 358 mg/kg single i.p.): 99 ± 3%
- survival ([1]; 358 mg/kg single i.p.): surv (surv. animals survived the 10 days period)
- body weight, percentage of the body weight before the experiment ([1]; 535 mg/kg single i.p.): 83 ± 5%
- survival ([1]; 535 mg/kg single i.p.): 3 days
- body weight, percentage of the body weight before the experiment ([1]; 803 mg/kg single i.p.): 89 ± 4%
- survival ([1]; 803 mg/kg single i.p.): 3.5 days
- body weight, percentage of the body weight before the experiment ([1]; 1205 mg/kg single i.p.): 88 ± 2%
- survival ([1]; 1205 mg/kg single i.p.): 2 days
- body weight, percentage of the body weight before the experiment ([1]; 1809 mg/kg single i.p.): 97 ± 2%
- survival ([1]; 1809 mg/kg single i.p.): 1 days
- body weight, percentage of the body weight before the experiment ([1]; 2709 mg/kg single i.p.): 98 ± 1%
- survival ([1]; 2709 mg/kg single i.p.): 1 days
- ALT (wildtype mice [2]): 108 ± 61.5 u/l
- AST (wildtype mice [2]): 135 ± 29.7 u/l
- BUN (wildtype mice [2]): 97.7 ± 5.5 mg/dL
- ALT (hyg^R mice [3]; 9 mg/kg single i.p.): 28.7 ± 15.1 u/l
- AST (hyg^R mice [3]; 9 mg/kg single i.p.): 43.0 ± 5.2 u/l
- BUN (hyg^R mice [3]; 9 mg/kg single i.p.): 24.0 ± 4 mg/dL
- ALT (hyg^R mice [3]; 803 mg/kg single i.p.): 108 ± 66.3 u/l
- AST (hyg^R mice [3]; 803 mg/kg single i.p.): 102.0 ± 12.7 u/l
- BUN (hyg^R mice [3]; 803 mg/kg single i.p.): 102 ± 55.1 mg/dL
- Kidney Tubule degeneration, lesion severity grade (wildtype mice [4]): 2.2 ± 0.4
- Kidney Tubule eosinophilia, lesion severity grade (wildtype mice [4]): 1.0 ± 1.2
- Kidney Tubule necrosis, lesion severity grade (wildtype mice [4]): 1.2 ± 1.1
- Liver Acute inflamation, lesion severity grade (wildtype mice [4]): 0
- Liver Fatty change, lesion severity grade (wildtype mice [4]): 0
- Liver Necrosis, lesion severity grade (wildtype mice [4]): 0
- Kidney Tubule degeneration, lesion severity grade (hyg^R mice [5]): 0
- Kidney Tubule eosinophilia, lesion severity grade (hyg^R mice [5]): 0
- Kidney Tubule necrosis, lesion severity grade (hyg^R mice [5]): 0
- Liver Acute inflamation, lesion severity grade (hyg^R mice [5]): 0.8 ± 1.0
- Liver Fatty change, lesion severity grade (hyg^R mice [5]): 0.6 ± 0.8
- Liver Necrosis, lesion severity grade (hyg^R mice [5]): 2.2 ± 0.4
